Experimental data reported in patent US9873904B2, “Detection of acid-producing bacteria” (3M INNOVATIVE PROPERTIES COMPANY, priority 2009, dated 2018).
Counter-ions that a name gives are not always drawn. Like-named read-outs stand apart in the source and are kept apart here.

Assays:
[1] = tested on: L. lactis subspecies lactis; format: cell-based, Lactococcus lactis subspecies lactis; details: 30 C
Excerpt: (§1) DIFCO MRS broth was obtained from BD-Diagnostic Systems (Sparks, Md.).
(§2) Four strains of lactic acid-producing bacteria were isolated from processed meats. Two of the cultures were identified as Leuconostoc mesenteroides and Weissella viridescens, Lactococcus lactis subspecies lactis and Streptococcus oralis.
(§3) Bromcresol purple (BCP) pH indicators was obtained from Eastman Kodak (Rochester, N.Y.). Chlorophenol red (CPR) (CAS NO. 4430-20-0) was obtained from Sigma-Aldrich (St. Louis, Mo.). The pH indicators were individually added to MRS broth to obtainfinal concentrations of BCP or CPR of 0.5 mM. After dissolving the pH indicator, the solutions were filter-sterilized.
(§4) Bacterial cultures were prepared by inoculating pure cultures into tryptic soy broth or MRS broth. The inoculated broth was incubated overnight at 25° C. The overnight cultures were diluted in the MRS broth (containing bromcresol purple) to obtain a suspension of approximately 10-100 colony-forming units (CFU) per milliliter. […] Inoculated plates were incubated at temperatures at 25°, 30° and 32° C., respectively. The plates were visually inspected for signs of bacterial growth.
(§5) A concentrated solution of sterile chlorophenol red was added to the MRS diluent as described in Example 2. A concentrated solution of sterile dipotassium phosphate (pH 7.0+/−0.2) was added to the MRS diluent to provide an additional 28 mM phosphate buffer in the diluent. Lactic acid bacterial cultures were prepared and diluted into the MRS/chlorophenol red solution as described in Example 1 with the exception that S. oralis was not tested in this experiment. […] The plates were incubated at 30° C. and the plates were visually inspected for signs of bacterial growth.
as §5, with “provide and” for “provide an”

[2] = tested on: S. oralis; format: cell-based, Streptococcus oralis; details: Example 1; indicator 0.02 g/l or 0.04 g/l; buffer addition None; 25 C, 30 C; 40-72 hr
Excerpt: as §1, §2, §3, §4
A concentrated solution of sterile chlorophenol red was added to the MRS diluent as described in Example 2. […]

[3] = tested on: Leuconostoc; format: cell-based, Leuconostoc mesenteroides; details: 30 C
Excerpt: as §1, §2, §3, §4, §5
as §5, with “provide and” for “provide an”

[4] = tested on: Weissella; format: cell-based, Weissella viridescens; details: 30 C
Excerpt: as §1, §2, §3, §4, §5
as §5, with “provide and” for “provide an”

[5] = tested on: L. lactis subspecies lactis; test: Colony appearance on thin film culture devices containing pH indicators (MRS/Letheen diluent); format: cell-based, Lactococcus lactis subspecies lactis; details: indicator 0.5 mM
Excerpt: (§6) The aliquot were separately filter-sterilized.

[6] = tested on: L. mesenteroides; test: as above; format: cell-based, Leuconostoc mesenteroides; details: indicator 0.5 mM
Excerpt: as §6

[7] = tested on: Saccharomyces cerevisiae; test: Detection of lactic acid bacteria with Nystatin on Plate I; format: cell-based; details: 500 U/mL Nystatin, 28 degrees Celsius, 48-144 hr, 99.9% CO2
Experimental: (§7) Overnight cultures of Lactobacillus brevis, Pediococcus damnosus and 5 strains of Saccharomyces cerevisiae were grown in MRS broth (bacteria cultures) or yeast peptone dextrose (YPD) broth (yeast cultures). These cultures were serially diluted, yielding suspensions that contained approximately 100 cfu/mL of the organisms. A second series of suspensions were prepared and 500 U/mL Nystatin (CAS No. 1400-61-9 from Sigma) were added to the suspensions. A stock solution was prepared by adding Nystatin solids to 100% ethanol to make a solution of 25,000 U/mL which was then added to the bacteria/yeast suspensions to obtain the desired Nystatin concentration. One milliliter of each of the different solutions was then inoculated onto Plate I. The inoculated plates were incubated at 28 degrees Celsius for 48-144 hr in a 99.9% CO2 incubator.

[8] = tested on: Pediococcus damnosus; test: as above; format: cell-based; details: 500 U/mL Nystatin, 28 degrees Celsius, 48-144 hr, 99.9% CO2
Experimental: as §7

[9] = tested on: Lactobacillus brevis; test: as above; format: cell-based; details: 500 U/mL Nystatin, 28 degrees Celsius, 48-144 hr, 99.9% CO2
Experimental: as §7

[10] = tested on: Saccharomyces cerevisiae; test: Colony growth with cycloheximide on Plate I; format: cell-based
Experimental: (§8) Overnight cultures of Lactobacillus brevis in MRS broth and Saccharomyces cerevisiae in yeast peptone dextrose (YPD) broth were prepared as described in Example 7. The cultures were serially diluted to obtain suspensions, each containing approximately 100 cfu/ml of the individual species (either L. brevis or S. cerevisiae). A third suspension was prepared containing 100 cfu/mL total of both species. […] The cycloheximide was added by using a stock solution of cycloheximide prepared by dissolving 100 ppm of cycloheximide to Butterfield's Buffer and sterile filtering the solution through a 0.2 μm filter. The stock solution was added to the diluent buffer.
(§9) One milliliter of each of the bacterial suspensions was used to inoculate Plate I. The plates were incubated at 28° C. for 48 hr in an incubator having an environment of 99.9% carbon dioxide. Growth indicates the presence of colonies.

[11] = tested on: Lactobacillus brevis and Saccharomyces; test: Colony growth with cycloheximide on Plate I; format: cell-based, Lactobacillus brevis and Saccharomyces cerevisiae
Experimental: as §8, §9

[12] = tested on: Lactobacillus brevis; test: Colony growth with cycloheximide on Plate I; format: cell-based; details: with cycloheximide 100 ppm, 28° C., 48 hr, 99.9% carbon dioxide
Experimental: Overnight cultures of Lactobacillus brevis in MRS broth and Saccharomyces cerevisiae in yeast peptone dextrose (YPD) broth were prepared as described in Example 7. The cultures were serially diluted to obtain suspensions, each containing approximately 100 cfu/ml of the individual species (either L. brevis or S. cerevisiae). A third suspension was prepared containing 100 cfu/mL total of both species. A second set of 3 suspensions was prepared in the same manner (only L. brevis, only S. cerevisiae, and both organisms) except that each final solution also contained 100 ppm […] cycloheximide ((CAS No. 66-81-9), sold under the tradename Actidione and obtained from Sigma (Fluka). The cycloheximide was added by using a stock solution of cycloheximide prepared by dissolving 100 ppm of cycloheximide to Butterfield's Buffer and sterile filtering the solution through a 0.2 μm filter. The stock solution was added to the diluent buffer.
as §9

[13] = Example 1, indicator 0.02 g/l or 0.04 g/l, buffer addition None, 25 C, 18-24 hr
[14] = Example 1, indicator 0.02 g/l or 0.04 g/l, buffer addition None, 25 C, 40-72 hr
[15] = Example 2, indicator 0.21 g/l, buffer addition None, 18-24 hr
[16] = Example 2, indicator 0.21 g/l, buffer addition None, 40-72 hr
[17] = Example 3, indicator 0.21 g/l, buffer addition 28 mM, 18-24 hr
[18] = Example 3, indicator 0.21 g/l, buffer addition 28 mM, 40-72 hr
[19] = with cycloheximide 100 ppm, 28° C., 48 hr, 99.9% carbon dioxide

Cc1cc(C2(c3cc(C)c(O)c(Br)c3)OS(=O)(=O)c3ccccc32)cc(Br)c1O [Bromcresol Purple, Bromcresol purple]
Observations [1, 13]: L. lactis subspecies lactis: Colonies with acid zones. No gas bubbles. | Observations [1, 14]: L. lactis subspecies lactis: Colonies with acid zones. No gas bubbles. | Observations [2]: S. oralis: Acid zones. No visible colonies or gas bubbles. | Observations [3, 14]: Leuconostoc: Acid zones. No visible colonies or gas bubbles. | Observations [4, 13]: Weissella: Acid zones without visible colonies. No gas bubbles. | Observations [4, 14]: Weissella: Acid zones and gas bubbles. Pale colonies.

Cc1c(C2(c3cc(Br)c(O)c(Br)c3C)OS(=O)(=O)c3ccccc32)cc(Br)c(O)c1Br [Bromocresol Green, Bromocresol Green sodium salt]
24-hour Results ([5]; 32° C.): Pale yellow zones | 24-hour Results ([6]; 25° C.): Colonies, yellow zones | 24-hour Results ([6]; 32° C.): Colonies, yellow zones

O=C1C(Br)=CC(=C(c2cc(Br)c(O)c(Br)c2)c2ccccc2S(=O)(=O)[O-])C=C1Br.[Na+] [Bromphenol Blue, Bromphenol Blue sodium salt]
48-hour Results ([5]; 25° C.): Pale colonies | 72-hour Results ([5]; 25° C.): Colonies, gas | 48-hour Results ([5]; 32° C.): pale colonies | 72-hour Results ([5]; 32° C.): Colonies, gas | 48-hour Results ([6]; 32° C.): Pale colonies, gas bubbles | 72-hour Results ([6]; 32° C.): Pale colonies, gas bubbles

O=S1(=O)OC(c2ccc(O)c(Cl)c2)(c2ccc(O)c(Cl)c2)c2ccccc21 [Chlorophenol Red, Chlorophenol red]
Observations [1, 15]: Acid zones were visible for all three microorganisms tested. | Observations [1, 16]: L. lactis subspecies lactis: Colonies with acid zones and gas bubbles. | Observations [1, 17]: Acid zones visible with all three strains. | Observations [1, 18]: L. lactis subspecies lactis: Colonies with acid zones and gas bubbles. | 24-hour Results ([5]; 32° C.): Colonies; yellow zones | 48-hour Results ([5]; 32° C.): Colonies; yellow zones | 24-hour Results ([6]; 32° C.): Yellow zones | 48-hour Results ([6]; 32° C.): Yellow zones, gas | Observations [3, 15]: Acid zones were visible for all three microorganisms tested. | Observations [3, 16]: Leuconostoc: Acid zones and gas bubbles. No visible colonies. | Observations [3, 17]: Acid zones visible with all three strains. | Observations [3, 18]: Leuconostoc: Acid zones. No visible colonies. | Observations [4, 15]: Acid zones were visible for all three microorganisms tested. | Observations [4, 16]: Weissella: Colonies with acid zones and gas bubbles. | Observations [4, 17]: Acid zones visible with all three strains. | Observations [4, 18]: Weissella: Colonies with acid zones and gas bubbles.

C[C@@H]1[C@H](O)[C@@H](C)/C=C/C=C/CC/C=C/C=C/C=C/C=C/C(O[C@H]2O[C@H](C)[C@@H](O)[C@H](N)[C@@H]2O)CC2O[C@](O)(CC(O)C(O)CCC(O)CC(O)CC(O)CC(=O)O[C@H]1C)CC(O)C2C(=O)O (stereo partly drawn) [Nystatin]
colony growth [7]: grew only on the plates that did not contain Nystatin | colony growth [8]: grew whether Nystatin was present or not | colony growth [9]: grew whether Nystatin was present or not

C[C@@H]1C[C@@H]([C@H](O)CC2CC(=O)NC(=O)C2)C(=O)[C@@H](C)C1 [cycloheximide]
growth ([10]; cycloheximide 5, 10, 40 and 100 ppm, only S. cerevisiae): no growth | Observation (colony growth) [10, 19]: No growth | colony morphology ([11]; cycloheximide 5, 10, 40 and 100 ppm): one distinct colony morphology | Observation (colony growth) [11, 19]: Growth - 1 distinct colony morphology | Observation (colony growth) [12]: Growth - 1 distinct colony morphology
